Reference: EPA's ToxRefDB 2

Assays:
mouse [1] = settings: Combined chronic toxicity/carcinogenicity, b6c3f1, Oral, Feed, dose end: 104 week, group: systemic
rabbit = settings: Prenatal developmental toxicity study, new zealand white, Oral, Gavage/Intubation, dose end: 19 GD
dog [2] = settings: Chronic toxicity; beagle; Oral; Gavage/Intubation; dose end: 52 week; group: systemic; systemic / clinical chemistry / albumin / albumin + systemic / clinical chemistry / alkaline phosphatase (alp/alk) / alkaline phosphatase (…
rat [3] = settings: Prenatal developmental toxicity study, sprague dawley, Oral, Gavage/Intubation, dose end: 15 GD
dog [4] = settings: Subchronic oral toxicity in nonrodent, beagle, Gavage/Intubation, dose end: 13 week, group: systemic, systemic / hematology / mean corpuscular hemoglobin (mch) / mean corpuscular hemoglobin (mch) + systemic / hematology / mean corpuscular …
rat [5] = settings: Combined chronic toxicity/carcinogenicity, sprague dawley, Oral, Feed, dose end: 104 week, group: systemic
mouse [6] = settings: Subchronic oral toxicity in rodents, b6c3f1, Feed, dose end: 15 week
rat [7] = settings: Multigenerational reproductive toxicity study, sprague dawley, Oral, Feed, dose end: 2 generation
rat [8] = settings: Subchronic oral toxicity in rodents, other, Feed, dose end: 90 day, group: systemic
[9] = systemic / clinical chemistry / albumin / albumin + systemic / clinical chemistry / alkaline phosphatase (alp/alk) / alkaline phosphatase (…
[10] = systemic / organ weight / kidney / relative to body weight + systemic / organ weight / kidney / absolute
[11] = group: developmental, systemic / in life observation / body weight / fetal weight
[12] = group: developmental, systemic / in life observation / body weight / fetal weight + developmental / developmental malformation / bone / misshapen + developmental…
[13] = group: maternal, reproductive / reproductive performance / postimplantation loss / postimplantation loss + reproductive / reproductive performance / …
[14] = group: developmental, developmental / developmental malformation / bone / absent
[15] = group: maternal, systemic / in life observation / body weight / body weight gain
[16] = systemic / in life observation / body weight / body weight gain
[17] = systemic / in life observation / body weight / body weight gain + systemic / clinical chemistry / albumin / albumin + systemic / clinical …
[18] = group: maternal, reproductive / reproductive performance / fertility / fertility
[19] = group: systemic, systemic / clinical chemistry / alkaline phosphatase (alp/alk) / alkaline phosphatase (alp/alk) + systemic / hematology / hematocrit (hct…
[20] = group: systemic, systemic / in life observation / food consumption / food consumption
[21] = group: offspring, systemic / in life observation / body weight / offspring (pup) weight gain + systemic / in life observation / body weight / offspring (pup) …
[22] = group: parental, systemic / in life observation / body weight / body weight + systemic / in life observation / body weight / body weight gain
[23] = group: reproductive, reproductive / offspring survival early / litter size / litter size
[24] = group: reproductive, reproductive / offspring survival early / litter size / litter size + reproductive / reproductive performance / fertility / fertility

`CON(C)C(=O)Nc1ccc(Oc2ccc3c(c2)OC(C)(OC)CC3(C)C)cc1` (stereo unspecified) [Metobenzuron] showed an LOAEL (mouse [1]; [9]) of 139 mg/kg/day, an NOAEL (mouse [1]; [9]) of 41.1 mg/kg/day and an LEL (mouse [1]; [10]) of 6.9 mg/kg/day. The NEL (mouse [1]; [10]) was less than 6.9 mg/kg/day, the LOAEL (rabbit; [11]) was 100 mg/kg/day and the LEL (rabbit; [12]) was 100 mg/kg/day. It also gave an NEL (rabbit; [12]) of 50 mg/kg/day, an NOAEL (rabbit; [12]) of 50 mg/kg/day and an LEL (rabbit; [13]) of 100 mg/kg/day. It also gave an LOAEL (rabbit; [13]) of 100 mg/kg/day, an NEL (rabbit; [13]) of 50 mg/kg/day and an NOAEL (rabbit; [13]) of 50 mg/kg/day. For the same compound, the LEL (dog [2]) was 75 mg/kg/day, the LOAEL (dog [2]) was 75 mg/kg/day and the NEL (dog [2]) was 5 mg/kg/day. It also gave an NOAEL (dog [2]) of 5 mg/kg/day, an LEL (rat [3]; [14]) of 25 mg/kg/day and an NEL (rat [3]; [14]) of less than 25 mg/kg/day. For the same compound, the LOAEL (rat [3]; [11]) was 50 mg/kg/day, the NOAEL (rat [3]; group: developmental, systemic / in life observation / body weight / fetal weight + developmental / developmental malformation / bone / absent + developmental / …) was 25 mg/kg/day and the LEL (rat [3]; [15]) was 25 mg/kg/day. For the same compound, the LOAEL (rat [3]; [15]) was 25 mg/kg/day, the NEL (rat [3]; [15]) was less than 25 mg/kg/day and the NOAEL (rat [3]; [15]) was less than 25 mg/kg/day. It also gave an LEL (dog [4]) of 25 mg/kg/day, an LOAEL (dog [4]) of 25 mg/kg/day and an NEL (dog [4]) of 5 mg/kg/day. For the same compound, the NOAEL (dog [4]) was 5 mg/kg/day, the LEL (rat [5]; systemic / in life observation / body weight / body weight) was 4.4 mg/kg/day and the LOAEL (rat [5]; [16]) was 23.1 mg/kg/day. It also gave an NEL (rat [5]; [17]) of 1.5 mg/kg/day, an NOAEL (rat [5]; [17]) of 4.4 mg/kg/day and an LEL (mouse [6]; [18]) of 308 mg/kg/day. The LOAEL (mouse [6]; [18]) was greater than 308 mg/kg/day, the NEL (mouse [6]; [18]) was 91 mg/kg/day and the NOAEL (mouse [6]; [18]) was no less than 308 mg/kg/day. The LOAEL (mouse [6]; [19]) was 91 mg/kg/day, the NOAEL (mouse [6]; [19]) was 20 mg/kg/day and the LEL (mouse [6]; [20]) was 25 mg/kg/day. The NEL (mouse [6]; [20]) was less than 25 mg/kg/day, the LOAEL (rat [7]; group: offspring, systemic / in life observation / body weight / offspring (pup) weight gain) was 18.8 mg/kg/day and the LEL (rat [7]; [21]) was 18.8 mg/kg/day. For the same compound, the NEL (rat [7]; [21]) was 3.75 mg/kg/day, the NOAEL (rat [7]; [21]) was 3.75 mg/kg/day and the LEL (rat [7]; [22]) was 18.8 mg/kg/day. The LOAEL (rat [7]; [22]) was 37.5 mg/kg/day, the NEL (rat [7]; [22]) was 3.75 mg/kg/day and the NOAEL (rat [7]; [22]) was 18.8 mg/kg/day. The LEL (rat [7]; [23]) was 18.8 mg/kg/day, the LOAEL (rat [7]; [23]) was 18.8 mg/kg/day and the NEL (rat [7]; [24]) was 3.75 mg/kg/day. The NOAEL (rat [7]; [24]) was 3.75 mg/kg/day, the LEL (rat [8]; [16]) was 7.29 mg/kg/day and the LOAEL (rat [8]; [16]) was 45 mg/kg/day. For the same compound, the NEL (rat [8]; [16]) was less than 7.29 mg/kg/day and the NOAEL (rat [8]; [17]) was 6.05 mg/kg/day.
